Experimental data reported in patent publication US9573899B2, “USP7 inhibitor compounds and methods of use” (Genentech, Inc., priority 2015, dated 2017).
“Also recorded” adds a separate entry of the source.

Experiments:
[1] = target: T1, USP7, full-length, native C-Terminus (Homo sapiens, UniProt Q93009); assay: Biochemical USP7 assay with Ubiquitin-Rho110 substrate, compounds pre-incubated with USP7 (USP7_Ub-Rho preInc); details: compounds pre-mixed with USP7, 1 hour incubation, before substrate; read-out: USP7 Ub-Rho preInc (IC50)
T1 construct: USP7, full-length, native C-Terminus, 0.2 nM
Procedure, shortened: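 Full-length USP7 (0.2 nM) cleaving Ubiquitin-Rho110 (1 uM) in pH 7.5 Tris buffer with DTT, 1 h at room temperature, acetic-acid quenched; Rho110 fluorescence at 485/535 nm. Pre-incubation variant: compound and USP7 mixed 1 h before substrate addition. IC50 from % inhibition versus no-enzyme and uninhibited controls.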

USP47 = target: T2, USP47 (Homo sapiens, UniProt Q96K76); assay: Ub-Rho110 DUB assay, Table 2, USP47; format: biochemical
T2 sequence (Q96K76 1-1375): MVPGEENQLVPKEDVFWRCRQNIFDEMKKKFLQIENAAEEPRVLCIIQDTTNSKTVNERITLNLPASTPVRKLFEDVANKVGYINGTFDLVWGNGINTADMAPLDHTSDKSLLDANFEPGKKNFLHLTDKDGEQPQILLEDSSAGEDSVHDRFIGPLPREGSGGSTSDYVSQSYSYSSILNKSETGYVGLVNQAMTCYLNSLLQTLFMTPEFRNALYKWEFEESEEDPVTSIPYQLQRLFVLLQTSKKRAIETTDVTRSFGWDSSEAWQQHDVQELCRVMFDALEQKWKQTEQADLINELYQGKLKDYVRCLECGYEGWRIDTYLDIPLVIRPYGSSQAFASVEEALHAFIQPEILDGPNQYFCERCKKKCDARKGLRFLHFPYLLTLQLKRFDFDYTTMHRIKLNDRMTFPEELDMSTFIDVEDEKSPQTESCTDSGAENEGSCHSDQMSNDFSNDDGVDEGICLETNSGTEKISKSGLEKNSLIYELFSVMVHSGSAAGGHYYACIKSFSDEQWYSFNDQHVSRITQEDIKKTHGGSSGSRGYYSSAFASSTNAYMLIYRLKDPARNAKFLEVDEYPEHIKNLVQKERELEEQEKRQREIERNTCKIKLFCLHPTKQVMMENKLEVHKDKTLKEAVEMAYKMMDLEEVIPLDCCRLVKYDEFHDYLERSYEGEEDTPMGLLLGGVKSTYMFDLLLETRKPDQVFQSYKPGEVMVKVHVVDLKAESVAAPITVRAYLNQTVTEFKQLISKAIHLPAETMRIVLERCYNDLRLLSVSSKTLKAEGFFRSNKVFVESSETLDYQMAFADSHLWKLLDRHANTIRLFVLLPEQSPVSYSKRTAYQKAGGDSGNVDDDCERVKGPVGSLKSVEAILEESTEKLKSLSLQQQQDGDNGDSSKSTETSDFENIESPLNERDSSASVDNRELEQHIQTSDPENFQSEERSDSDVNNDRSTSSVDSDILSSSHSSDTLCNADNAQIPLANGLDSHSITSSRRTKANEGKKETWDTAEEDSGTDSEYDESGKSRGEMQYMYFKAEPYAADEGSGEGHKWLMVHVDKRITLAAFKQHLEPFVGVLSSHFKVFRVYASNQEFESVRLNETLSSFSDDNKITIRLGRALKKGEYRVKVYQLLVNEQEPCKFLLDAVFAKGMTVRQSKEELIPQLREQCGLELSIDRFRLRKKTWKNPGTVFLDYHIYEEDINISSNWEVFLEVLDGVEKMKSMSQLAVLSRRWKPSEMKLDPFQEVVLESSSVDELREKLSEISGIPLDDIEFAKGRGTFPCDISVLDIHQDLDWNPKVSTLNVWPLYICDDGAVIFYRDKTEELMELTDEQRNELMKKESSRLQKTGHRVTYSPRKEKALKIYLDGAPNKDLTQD

[2] = tested on: p53 and p21 in HCT116 colon cancer cell lines; assay: Western blot of p53 and p21 in isogenic HCT116 cell lines (FIG. 2A); format: cell-based, Human; details: isogenic HCT116: wild-type, USP7 null
Description: (§1) In 24-well plates, 0.10-0.15×10^6 (adherent) or 0.5×10^6 (suspension) cells were treated with 15 μM or 2.5 μM compounds, respectively, for 24 h in low serum prior to lysis for Western Blot analysis.

endogenous USP7 = target: T3, endogenous USP7 (Homo sapiens, UniProt Q93009); assay: Activity-based profiling of deubiquitinases with HA-tagged ubiquitin probes, western blot (FIG. 5, 6); format: biochemical; details: 15 μM, 293T cell lysate
T3 construct: endogenous in cells; host or cells: 293T cell lysate
Description: 293T cells at 80% confluency are harvested by rinsing the plate one time with 10 ml PBS followed by scraping. Cells are cleared by spinning them for 3 min at 350 g at 4° C. and the pellet is flash-frozen in liquid nitrogen and stored at −80° C. until lysis. Frozen cells are lysed by quickly re-thawing them in Buffer A (50 mM Tris-HCl pH 7.5, 250 mM Sucrose, 5 mM TCEP, 2 mM ATP, 50 μM phenylmethylsulfonyl fluoride (PMSF), 120 mM NaCl, 5 mM MgCl2) and the lysate is cleared by centrifugation by spinning at 18,000 g at 4° C. […] Subsequently, the 4 samples are all incubated with 6.6 μg/ml of either one of the following activity-based DUB probes (the same probe for each of the 4 samples): HA-tagged ubiquitin vinyl sulfone (Boston Biochem, Cambridge, Mass.), HA-tagged ubiquitin propargylamine (UbiQ Bio BV, Amsterdam, The Netherlands) or HA-tagged ubiquitin vinylmethyl ester (UbiQ Bio BV, Amsterdam, The Netherlands), 1200 rpm, at 25° C., for 1 hr. The reaction is terminated by adding a 20% SDS solution to a final concentration of 0.4% for at least 30 min at room temperature, rotating. Subsequently, the reacted lysate is diluted 10× with Buffer B (50 mM Tris-HCl pH 7.5, 150 mM NaCl, 5 mM EDTA, protease inhibitor cocktail EDTA-free (Roche, Mannheim, Germany), 50 μM PMSF, 0.5% NP-40). 60-100 μl slurry depending on input protein amount of pre-equilibrated anti-HA affinity matrix (Roche, Mannheim, Germany) are added and HA-tagged proteins are immunopurified with this matrix by rotating the samples over night at 4° C. The next day the beads are washed with the following buffers in this order: three times ice-cold Buffer B, one time ice-cold Buffer B NP-40 free, and three times ice-cold 15 mM TEAB pH 8.5. Spins between washes are performed at 2000 g and 4° C. […]

[3] = tested on: KMS-21BM and KMS-28PE multiple myeloma cells; assay: Cell Titer Glo viability of multiple myeloma cells (FIG. 13A); format: cell-based; details: compared to 89
Description: Seventy two hours after compounds were added, CellTitre Glo (CTG) reagent was added following the protocol provided by the manufacturer (Promega). In the experiment to test compound dependency on USP7, 3× more USP7 null cells were plated per well (7,500 vs. 2,500 for wild-type (WT) cells), given the slower proliferation of USP7 null cells. For the multiple myeloma experiment, cells seeded in low serum and treated with compounds immediately. Twenty four hours later, serum was added back to normal levels. CTG assay was done 24 h later i.e. 48 h after compounds were added instead of 72 hrs later for the adherent cells.

[4] = tested on: p53, p21, MDM2 and E6AP in RKO, RKO-E6, Vibo and SiHA cell lines; assay: Western blot in RKO, RKO-E6, Vibo and SiHA cells (FIG. 14A); format: cell-based
Description: as §1

T3 sequence (Q93009 whole entry): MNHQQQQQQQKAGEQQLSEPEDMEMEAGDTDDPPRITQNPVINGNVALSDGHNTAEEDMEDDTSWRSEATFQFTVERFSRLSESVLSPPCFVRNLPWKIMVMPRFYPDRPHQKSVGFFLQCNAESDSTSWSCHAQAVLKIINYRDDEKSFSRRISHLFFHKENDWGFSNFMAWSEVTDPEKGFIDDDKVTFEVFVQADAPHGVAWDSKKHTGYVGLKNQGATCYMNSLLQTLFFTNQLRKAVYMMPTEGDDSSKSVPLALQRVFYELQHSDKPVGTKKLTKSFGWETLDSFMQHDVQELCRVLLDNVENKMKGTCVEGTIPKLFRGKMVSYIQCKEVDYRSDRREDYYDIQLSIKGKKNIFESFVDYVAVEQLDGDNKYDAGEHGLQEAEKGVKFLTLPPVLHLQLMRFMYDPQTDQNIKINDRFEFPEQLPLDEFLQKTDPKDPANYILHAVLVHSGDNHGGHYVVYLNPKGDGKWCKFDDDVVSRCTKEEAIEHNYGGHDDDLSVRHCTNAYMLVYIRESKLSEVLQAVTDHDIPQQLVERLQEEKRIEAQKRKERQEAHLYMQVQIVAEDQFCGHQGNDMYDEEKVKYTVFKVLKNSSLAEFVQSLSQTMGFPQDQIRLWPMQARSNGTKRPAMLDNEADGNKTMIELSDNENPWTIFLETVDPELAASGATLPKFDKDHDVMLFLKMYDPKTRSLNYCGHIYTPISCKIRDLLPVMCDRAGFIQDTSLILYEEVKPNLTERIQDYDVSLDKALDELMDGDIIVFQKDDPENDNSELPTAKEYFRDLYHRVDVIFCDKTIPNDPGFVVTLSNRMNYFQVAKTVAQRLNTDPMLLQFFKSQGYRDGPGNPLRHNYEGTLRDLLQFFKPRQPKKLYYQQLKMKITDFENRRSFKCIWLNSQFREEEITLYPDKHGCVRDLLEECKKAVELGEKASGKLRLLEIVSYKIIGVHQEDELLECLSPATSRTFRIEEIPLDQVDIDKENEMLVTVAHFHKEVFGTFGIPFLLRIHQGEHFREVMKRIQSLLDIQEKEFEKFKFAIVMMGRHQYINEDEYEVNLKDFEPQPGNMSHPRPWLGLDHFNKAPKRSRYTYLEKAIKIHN
T1 sequence (Q93009 whole entry): as above

CCc1c(-c2ccc3[nH]ncc3c2)cnc(N)c1-c1ccc(O)cc1 [Compound 88, 4-[2-amino-4-ethyl-5-(1H-indazol-5-yl)-3-pyridyl]phenol]
IC50 [1]: 2.1 µM | IC50 (USP47): > 200 µM | stabilization of p53 and p21 (western blot) [2]: stabilize p53 and p21 | selective antagonism of endogenous USP7 over other DUBs (endogenous USP7; evaluated by western blotting): selective DUB inhibition; also recorded: selectively antagonizes endogenous USP7 over other DUBs | HA-probe-conjugated band corresponding to USP7 (endogenous USP7; western blot): decreased | cell viability (Cell Titer Glo signal) [3]: decrease in cell viability | effect on p53, p21, MDM2 and E6AP (western blot) [4]: stabilize p53, p21, and destabilize MDM2 and E6AP
